Holding throughout (type): biochemical
The target of one assay is T1, cathepsin L (Rattus norvegicus, UniProt P07154).
T1 construct: Cathepsin L was purified from rat kidney; from tissue; host or cells: rat kidney
Put plainly: Thiol protease inhibitory activity, cathepsin L purified from rat kidney. The settings on record: Table 3. As for the experimental part: (§1) Inhibitory activity against papain (P-3125, Sigma) and cathepsin B (C-6286, Sigma) was assayed according to the method described in a literature [Biochemical Journal, 201, 189 (1982)]. Cathepsin L was purified from rat kidney according to the method in a literature [Journal of Biochemistry, 100, 35 (1986)], and the inhibitory activity against it was assayed in the same manner as described in the above literature for cathepsin B. Furthermore, m-calpain was purified from rat brain according to a known method [Journal of Biological Chemistry, 254, p. 3210 (1984)] and the inhibitory activity against it was assayed by a method described in a literature [Journal of Biological Chemistry, 259, 12489 (1984)]. It is evident from Tables 3 and 4 that the compounds of the present invention have a potent inhibitory activity against thiol proteases such as papain, cathepsin B, cathepsin L or m-calpain.

A further assay concerns the target T2, cathepsin B (Bos taurus, UniProt P07688).
T2 construct: purchased Sigma C-6286
Description: Thiol protease inhibitory activity, cathepsin B (C-6286, Sigma). Conditions: Table 3. As for the experimental part: as §1

For another assay, the target named is T3, m-calpain (Rattus norvegicus, UniProt Q07009).
T3 construct: m-calpain was purified from rat brain; from tissue; host or cells: rat brain
T3 sequence (Q07009 20-700 limits assumed): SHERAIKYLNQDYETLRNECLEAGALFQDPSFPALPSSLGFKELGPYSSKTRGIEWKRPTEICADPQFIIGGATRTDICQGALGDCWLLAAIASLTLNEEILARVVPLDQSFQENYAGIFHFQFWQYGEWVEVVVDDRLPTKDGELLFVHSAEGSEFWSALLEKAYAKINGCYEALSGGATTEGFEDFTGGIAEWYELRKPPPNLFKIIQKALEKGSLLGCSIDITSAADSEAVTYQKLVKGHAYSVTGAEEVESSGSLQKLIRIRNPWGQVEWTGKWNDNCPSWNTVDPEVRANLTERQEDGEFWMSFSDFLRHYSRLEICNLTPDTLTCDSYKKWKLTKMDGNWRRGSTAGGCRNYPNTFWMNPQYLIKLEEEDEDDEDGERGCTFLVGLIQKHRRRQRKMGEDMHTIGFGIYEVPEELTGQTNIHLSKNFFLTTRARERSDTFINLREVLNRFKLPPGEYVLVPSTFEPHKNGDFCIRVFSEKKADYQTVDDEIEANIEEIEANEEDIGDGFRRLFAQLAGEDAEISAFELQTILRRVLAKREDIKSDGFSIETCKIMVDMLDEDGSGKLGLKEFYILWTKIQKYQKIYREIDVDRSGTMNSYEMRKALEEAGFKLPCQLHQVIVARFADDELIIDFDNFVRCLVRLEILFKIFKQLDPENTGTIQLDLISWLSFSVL
T3 sequence (Q64537 1-270 partner): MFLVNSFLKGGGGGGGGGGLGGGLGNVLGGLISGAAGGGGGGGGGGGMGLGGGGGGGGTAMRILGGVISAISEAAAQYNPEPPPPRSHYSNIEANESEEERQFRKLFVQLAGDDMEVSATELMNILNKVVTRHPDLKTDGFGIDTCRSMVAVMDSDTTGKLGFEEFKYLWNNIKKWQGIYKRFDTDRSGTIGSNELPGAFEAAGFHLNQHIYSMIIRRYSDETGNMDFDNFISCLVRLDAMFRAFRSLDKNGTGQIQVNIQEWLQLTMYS
Description: Thiol protease inhibitory activity, m-calpain purified from rat brain. The settings on record: Table 3. As for the experimental part:
as §1

The target in a further assay is T4, papain (Carica papaya, UniProt P00784).
T4 sequence (P00784 134-345): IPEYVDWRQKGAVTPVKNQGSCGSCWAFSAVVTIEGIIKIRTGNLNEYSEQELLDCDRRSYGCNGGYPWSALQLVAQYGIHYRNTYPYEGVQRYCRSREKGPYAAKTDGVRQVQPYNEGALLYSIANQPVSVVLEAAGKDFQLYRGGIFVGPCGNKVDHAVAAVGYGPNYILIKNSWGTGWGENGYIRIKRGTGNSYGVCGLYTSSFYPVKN
Description: Thiol protease inhibitory activity, papain (P-3125, Sigma). As for the experimental part: as §1

pIC50: −log10 of the molar value. Where two headings read alike, the source gives them in different places. Where only a bound is given, the exact number is not on record here.

T1 sequence (P07154 114-334): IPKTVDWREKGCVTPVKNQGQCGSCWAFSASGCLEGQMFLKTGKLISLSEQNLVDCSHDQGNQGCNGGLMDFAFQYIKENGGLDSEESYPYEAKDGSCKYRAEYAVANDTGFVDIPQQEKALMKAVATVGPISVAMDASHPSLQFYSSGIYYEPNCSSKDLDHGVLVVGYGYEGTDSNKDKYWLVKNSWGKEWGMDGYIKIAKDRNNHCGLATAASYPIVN

Turning to `CC(C)C[C@H](NC(=O)OCc1ccccc1)C(=O)N[C@@H](Cc1ccccc1)C(=O)CN(C)Cc1ccco1` [191 (No. 479), (s)-3-((s)-2-benzyloxycarbonylamino-4-methylvalerylamino)-1-(N-methylfurfurylamino)-4-phenyl-2-butanone], the pIC50 is 5.03 at cathepsin L; 5.46 against cathepsin B; 4.62 against m-calpain; less than 4.00 on papain (Table 3, read-out: IC50 papain).
Take `CCCC[C@H](NC(=O)[C@H](CC(C)C)NC(=O)COc1cccc(Cl)c1Cl)C(=O)CSCc1ccco1` [41 (No. 91), (s)-3-[(s)-2-(2,3-dichlorophenoxyacetylamino)-4-methylvalerylamino]-1-furfurylthio-2-heptanone]: the pIC50 on cathepsin L was 5.96; at cathepsin B it was 5.24; against m-calpain, 4.85; on papain (Table 3, read-out: IC50 papain), 4.68.
As for `CC(C)C[C@H](NC(=O)c1cc2ccccc2o1)C(=O)N[C@@H](Cc1ccccc1)C(=O)CSCc1ccco1` [174 (No. 382), (s)-3-[(s)-2-(2-benzofuranylcarbonylamino)-4-methylvalerylamino]-1-furfurylthio-4-phenyl-2-butanone], the pIC50 on cathepsin L is 5.80; against cathepsin B, 4.64; against m-calpain it was 4.80; on papain (Table 3, read-out: IC50 papain), 4.92.
`CC(C)C[C@H](NC(=O)OCc1ccccc1)C(=O)N[C@@H](CCC(=O)O)C(=O)CSCc1ccco1` [217 (No. 600), (s)-4-((s)-2-benzyloxycarbonylamino-4-methylvalerylamino)-6-furfurylthio-5-oxohexanoic Acid]: the pIC50 against cathepsin L is 4.96; at cathepsin B it was 5.60; against m-calpain, 4.72; at papain (Table 3, read-out: IC50 papain) it was 4.59.
Consider `CSCC(=O)[C@H](Cc1ccccc1)NC(=O)[C@H](CC(C)C)NC(=O)Cc1cccc2ccccc12` [120 (No. 256), (s)-3-[(s)-4-methyl-2-(1-naphtylacetylamino)valerylamino]-1-methylthio-4-phenyl-2-butanone], for which the pIC50 was 6.31 on cathepsin L; 5.41 against cathepsin B; 4.59 against m-calpain; 4.25 on papain (Table 3, read-out: IC50 papain).
The like results for `CC(C)C[C@H](NC(=O)Cc1ccc2ccccc2c1)C(=O)N[C@@H](Cc1ccccc1)C(=O)CSCc1ccco1` [160 (No. 334), (s)-1-furfurylthio-3-[(s)-4-methyl-2-(2-naphtylacetylamino)valerylamino]-4-phenyl-2-butanone] were, in that order, 5.18, 5.48, 4.55 and 4.46.
Regarding `CCC(C)[C@H](NC(=O)OCC1CCCCC1)C(=O)N[C@@H](Cc1ccccc1)C(=O)CSCc1ccco1` (stereo partly drawn) [135 (No. 288), (s)-3-((s)-2-cyclohexylmethoxycarbonylamino-3-methylvalerylamino)-1-furfurylthio-4-phenyl-2-butanone], the pIC50 against cathepsin L was 7.27; at cathepsin B, 6.51; on m-calpain, 5.49; on papain (Table 3, read-out: IC50 papain) it was 4.23.
Regarding `CC(C)C[C@H](NC(=O)COc1ccccc1)C(=O)N[C@@H](CC1CCCCC1)C(=O)CSCc1ccco1` [110 (No. 240), (s)-4-cyclohexyl-1-furfurylthio-3-((s)-4-methyl-2-phenoxyacetylaminovalerylamino)-2-butanone], the pIC50 at cathepsin L is 6.01; against cathepsin B, 5.48; against m-calpain it was 5.22; against papain, 4.68.
As to `CC(C)C[C@H](NC(=O)COc1ccccc1)C(=O)N[C@@H](Cc1ccc(Cl)cc1)C(=O)CSCc1ccco1` [197 (No. 511), (s)-4-(4-chlorophenyl)-1-furfurylthio-3-((s)-4-methyl-2-phenoxyacetylaminovalerylamino)-2-butanone], the pIC50 against cathepsin L was 5.77; at cathepsin B it was 5.22; on m-calpain, 5.11; on papain, 4.89.
`CCCC[C@H](NC(=O)[C@H](CC(C)C)NC(=O)COc1ccc2ccccc2c1)C(=O)CSCc1ccco1` [53 (No. 115), (s)-1-furfurylthio-3-[(s)-4-methyl-2-(2-naphtoxyacetylamino)valerylamino]-2-heptanone]: the pIC50 on cathepsin L is 5.82; at cathepsin B it was 4.96; against m-calpain, 5.21; at papain (Table 3, read-out: IC50 papain) it was 5.04.
The like results for `CCCC[C@H](NC(=O)[C@H](CC(C)C)NC(=O)COc1ccccc1C)C(=O)CSCc1ccco1` [44 (No. 96), (s)-1-furfurylthio-3-[(s)-4-methyl-2-(2-methylphenoxyacetylamino)valerylamino]-2-heptanone] were, in that order, 7.22, 6.77, 4.66 and 6.06.
For the molecule `CC(C)C[C@H](NC(=O)COc1ccccc1)C(=O)N[C@@H](Cc1ccccc1)C(=O)CSCc1ccco1` [164 (No. 348), (s)-1-furfurylthio-3-((s)-4-methyl-2-phenoxyacetylaminovalerylamino)-4-phenyl-2-butanone], the pIC50 at cathepsin L was 5.49; at cathepsin B it was 4.19; on m-calpain it was 5.77; at papain, 4.46.
As to `CCCC[C@H](NC(=O)[C@H](CC(C)C)NC(=O)Cc1cccc2ccccc12)C(=O)CSCc1ccco1` [33 (No. 76), (s)-1-furfurylthio-3-[(s)-4-methyl-2-(1-naphtylacetylamino)valerylamino]-2-heptanone], the pIC50 against cathepsin L was 6.57; on cathepsin B, 5.92; at m-calpain it was 5.19; on papain (Table 3, read-out: IC50 papain) it was 6.15.
With `CC(C)C[C@H](NC(=O)COc1ccccc1)C(=O)N[C@@H](CCc1ccccc1)C(=O)CSCc1ccco1` [206 (No. 543), (s)-1-furfurylthio-3-((s)-4-methyl-2-phenoxyacetylaminovalerylamino)-5-phenyl-2-pentanone], the pIC50 is 6.21 against cathepsin L, 6.09 on cathepsin B, 4.82 against m-calpain and 5.22 at papain.
Take `CC(C)C[C@H](NC(=O)OCc1ccccn1)C(=O)N[C@@H](Cc1ccccc1)C(=O)CSCc1ccco1` [150 (No. 313), (s)-1-furfurylthio-3-[(s)-4-methyl-2-(2-pyridylmethoxycarbonylamino)valerylamino]-4-phenyl-2-butanone]: the pIC50 against cathepsin L was 6.57; at cathepsin B it was 5.96; at m-calpain it was 5.27; on papain (Table 3, read-out: IC50 papain), 4.04.
As to `CCCC[C@H](NC(=O)[C@H](CC(C)C)NC(=O)COc1ccccc1)C(=O)C[S+]([O-])Cc1ccco1` (stereo partly drawn) [4 (No. 83), (s)-1-furfurylsulfinyl-3-((s)-4-methyl-2-phenoxyacetylaminovalerylamino)-2-heptanone], the pIC50 on cathepsin L is 7.35; against cathepsin B it was 7.36; against m-calpain, 4.92; at papain, 6.68.
With `CCCC[C@H](NC(=O)[C@H](CC(C)C)NC(=O)c1ccccc1)C(=O)CSCc1ccco1` [54 (No. 116), (s)-3-((s)-2-benzoylamino-4-methylvalerylamino)-1-furfurylthio-2-heptanone], the pIC50 against cathepsin L was 6.60; on cathepsin B, 6.06; at m-calpain it was 4.85; at papain (Table 3, read-out: IC50 papain), 6.42.
As to `CCCC[C@H](NC(=O)[C@H](CC(C)C)NC(=O)OCc1ccccn1)C(=O)CSCc1ccco1` [28 (No. 59), (s)-1-furfurylthio-3-[(s)-4-methyl-2-(2-pyridylmethoxycarbonylamino)valerylamino]-2-heptanone], the pIC50 is 4.82 at cathepsin L; 5.68 at cathepsin B; 4.96 on m-calpain; 5.47 on papain (Table 3, read-out: IC50 papain).

What is called pIC50 is the IC50 on a negative log10 scale, so that one unit is a factor of ten.

Source of the values: US5639783A, “Ketone derivatives” (Mitsubishi Chemical Corporation, priority 1991, dated 1997).
